Results reported in a compilation of properties of binary mixtures (doi:10.1039/b315616h).

Assay: xn = mol fraction of the nth substance listed
Conditions: 101.3 kPa, x2 = 0.865

CCCCCC[n+]1ccn(C)c1.F[B-](F)(F)F + CCCCCO
viscosity (314.94 K): 5.47 mPa·s | viscosity (315.04 K): 5.22 mPa·s | viscosity (315.1 K): 5.14 mPa·s | viscosity (315.15 K): 5.09 mPa·s | viscosity (315.2 K): 5.04 mPa·s | viscosity (315.24 K): 5 mPa·s | viscosity (315.3 K): 4.96 mPa·s | viscosity (315.44 K): 4.87 mPa·s | viscosity (315.54 K): 4.83 mPa·s | viscosity (315.58 K): 4.8 mPa·s | viscosity (315.71 K): 4.76 mPa·s | viscosity (315.75 K): 4.74 mPa·s | viscosity (315.88 K): 4.7 mPa·s | viscosity (315.91 K): 4.69 mPa·s | viscosity (315.94 K): 4.68 mPa·s | viscosity (315.98 K): 4.67 mPa·s | viscosity (316.07 K): 4.64 mPa·s | viscosity (316.22 K): 4.6 mPa·s | viscosity (316.42 K): 4.54 mPa·s | viscosity (316.73 K): 4.46 mPa·s | viscosity (317.23 K): 4.35 mPa·s | viscosity (319.34 K): 3.98 mPa·s | viscosity (321.14 K): 3.74 mPa·s | viscosity (323.16 K): 3.51 mPa·s | viscosity (325.69 K): 3.262 mPa·s | viscosity (328.15 K): 3.047 mPa·s
